Test results from PubChem BioAssay AID1996.
Values after ≈ are worked out from the molar mass of the structure shown.

Conditions: buffer; pH 7.4; 200.0 µM

Row | Structure (SMILES) | solubility kinetic
1 | Cc1cc(=O)cc(C)n1-c1ccc(F)cc1F | > 0.0353 mg/mL
2 | O=C(COc1ncnc2sccc12)NC1CCCCC1 | > 0.0437 mg/mL
3 | COc1ccc2oc(=N)c(C(=O)Nc3ccc(C)cc3)cc2c1 | 0.0006 mg/mL (≈ 1.95 µM)
4 | C=CCn1c(=S)sc2c(=O)[nH]cnc21 | > 0.0338 mg/mL
5 | CN1C(=O)C(CCC(N)=O)NC1=S (stereo not given) | 0.0291 mg/mL (≈ 145 µM)
6 | COc1cc2c(cc1OC)/C(=C/C(=O)c1ccc(C)cc1)NCC2 | 0.0248 mg/mL (≈ 76.7 µM)
7 | Cc1ccc(C)c(NC(=S)NCCc2cnc[nH]2)c1 | 0.0368 mg/mL (≈ 134 µM)
8 | Cc1ccc(S(=O)(=O)c2nc(-c3ccccc3Cl)oc2N(C)C2CCN(C)CC2)cc1 | > 0.069 mg/mL
9 | O=C(Nc1ncccn1)c1ccc([N+](=O)[O-])cc1Cl | 0.0278 mg/mL (≈ 99.8 µM)
10 | CCCC12CN3CC(C)(CN(C1)C3c1ccco1)C2=O (stereo not given) | 0.0389 mg/mL (≈ 142 µM)
11 | O=C(/C=C/c1ccco1)N1CCN(S(=O)(=O)c2cccc([N+](=O)[O-])c2)CC1 | 0.0281 mg/mL (≈ 71.8 µM)
12 | O=C(NC1CC2CCC1C2)c1ccco1 (stereo not given) | 0.0263 mg/mL (≈ 128 µM)
13 | NC(=O)CN1C(=O)C(=O)N(Cc2ccc(Cl)cc2)C1=O | > 0.0444 mg/mL
14 | O=S1(=O)CCN(Cc2cccc(C(F)(F)F)c2)CC1 | 0.0419 mg/mL (≈ 143 µM)
15 | O=C(COC(=O)c1cc(Cl)ccc1O)NCC1CCCO1 (stereo not given) | > 0.0471 mg/mL
16 | CCCCCCC(=O)OCC(=O)c1ccc2c(c1)NC(=O)CO2 | 0.0108 mg/mL (≈ 33.8 µM)
17 | O=C(NCc1ccc2c(c1)OCO2)c1cc([N+](=O)[O-])ccc1N1CCOCC1 | > 0.0578 mg/mL
18 | Cc1ccc(C(=O)COC(=O)C(C)N2C(=O)C3C4C=CC(C4)C3C2=O)cc1C (stereo not given) | 0.0555 mg/mL (≈ 146 µM)
19 | O=S(=O)(NCC1CC1)c1ccc(F)c(Cl)c1 | > 0.0396 mg/mL
20 | NC(=O)c1ccccc1NC(=O)c1ccc2c(c1)OCO2 | 0.0031 mg/mL (≈ 10.9 µM)
21 | Cn1c(=O)c2c(ncn2CC(=O)OCC(=O)Nc2cc(Cl)ccc2C#N)n(C)c1=O | 0.0632 mg/mL (≈ 147 µM)
22 | Cc1ccc(NC(=O)c2cnccn2)cc1 | > 0.032 mg/mL
23 | Cc1ccnc(SC2CC(=O)N(c3ccc(Br)cc3)C2=O)n1 (stereo not given) | 0.0441 mg/mL (≈ 117 µM)
24 | CCC(=O)c1ccc(OCC(=O)OCC(=O)NC2CCCCCCC2)cc1 | 0.048 mg/mL (≈ 128 µM)
25 | O=C(COC(=O)c1cc[n+]([O-])cc1)Nc1ccc(Cl)c(C(F)(F)F)c1 | > 0.0562 mg/mL
26 | CSc1ncccc1C(=O)OCC(=O)NC12CC3CC(CC(C3)C1)C2 | 0.0218 mg/mL (≈ 60.5 µM)
27 | CCCCn1c(N)c(N(C)C(=O)C2CCCC2)c(=O)[nH]c1=O | > 0.0463 mg/mL
28 | CNC(=S)N1CCn2cccc2C1c1cccnc1 (stereo not given) | 0.0408 mg/mL (≈ 150 µM)
29 | Cc1cccc(C(=O)NC(=S)N(C)C2CCCCC2)c1 | 0.0359 mg/mL (≈ 124 µM)
30 | CCCCN1C(=O)c2ccc(C(=O)NCc3ccco3)cc2C1=O | 0.0179 mg/mL (≈ 54.8 µM)

Further lines, results first:

Row | solubility kinetic | Structure (SMILES)
31 | > 0.039 mg/mL | O=C(N/N=C/c1cccnc1)c1ccccc1Cl
32 | 0.0007 mg/mL (≈ 2.53 µM) | Cc1cccc(NC(=O)c2cc(C)nc3ccccc23)c1
33 | > 0.0342 mg/mL | CC(NC(=O)Cn1cccc1)c1ccccc1 (stereo not given)
34 | > 0.0425 mg/mL | O=C(CC(Cc1ccccc1)C(=O)O)Nc1ccccc1 (stereo not given)
35 | 0.0036 mg/mL (≈ 14.6 µM) | Fc1cccc(-c2csc(-c3ccno3)n2)c1
36 | 0.0396 mg/mL (≈ 114 µM) | Cc1c(C(=O)CN2CCN(c3ccccc3)CC2)c2ccccc2n1C
37 | > 0.047 mg/mL | Cc1cccnc1NC(=O)c1ccc2c(c1)NC(=O)C(C)S2 (stereo not given)
38 | 0.0017 mg/mL (≈ 7.38 µM) | O=C1NC(=S)N/C1=C\C=C\c1ccccc1
39 | > 0.0384 mg/mL | Cl.O=C(NCc1ccccc1)N1CCNCC1
40 | > 0.0584 mg/mL | CCN(CC(=O)NCc1ccc(F)cc1)C(=O)COc1ccccc1[N+](=O)[O-]
41 | > 0.046 mg/mL | Cc1ccc(-c2nc(NCCN(C)C)c3ccccc3n2)cc1
42 | 0.0116 mg/mL (≈ 31.3 µM) | Cc1ccccc1SCC(=O)OCC(=O)N1CC(=O)Nc2ccccc21
43 | < 0.0003 mg/mL | O=C(/C=C/c1ccc(-c2ccccc2)cc1)NCc1cccnc1
44 | < 0.0003 mg/mL | CC(C)NC(=O)c1c(O)c2cccc3c2n(c1=O)CCC3
45 | 0.0297 mg/mL (≈ 101 µM) | COc1ccccc1NC(=O)c1cc(=O)[nH]c2ccccc12
46 | 0.0127 mg/mL (≈ 37 µM) | CC1CN(C(=O)COC(=O)c2cc3ccccc3cc2O)CC(C)O1 (stereo not given)
47 | 0.0405 mg/mL (≈ 130 µM) | CCOc1ccc(C(=O)N2CCc3ccccc32)cc1OCC
48 | 0.0169 mg/mL (≈ 86.6 µM) | COc1ccc(/C(C)=N\O)cc1OC
49 | 0.0363 mg/mL (≈ 113 µM) | CCC(=O)N(Cc1cc(=O)[nH]c2ccccc12)c1ccccc1C
50 | > 0.0261 mg/mL | CC(C)Cc1nc2ccccc2[nH]1
51 | > 0.0514 mg/mL | COc1cccc2[nH]c3c(=O)n(CCCN4CCOCC4)cnc3c12
52 | > 0.0419 mg/mL | CC(=O)Nc1ccc(CCc2nc3ccccc3[nH]2)cc1
53 | 0.0462 mg/mL (≈ 124 µM) | CNC(=S)N(CCc1c(C)[nH]c2ccc(Cl)cc12)Cc1cccnc1
54 | 0.0027 mg/mL (≈ 8.43 µM) | CCN(C(=S)NCc1ccccc1)c1cccc2ccccc12
55 | 0.0387 mg/mL (≈ 139 µM) | COC(=O)c1ccccc1SCc1csc(C)n1
56 | > 0.0356 mg/mL | Nc1cc(=O)[nH]c(=O)n1-c1ccc(Cl)cc1
57 | 0.0428 mg/mL (≈ 133 µM) | CSCc1cc(N(C)c2ccccc2)nc(-c2ccccn2)n1
58 | 0.0177 mg/mL (≈ 58.7 µM) | Cc1cc(C(=O)OCC(=O)NC(C)c2ccccc2)c(C)o1 (stereo not given)
59 | 0.003 mg/mL (≈ 10.3 µM) | O=c1[nH]c2c(oc3ccccc32)c(=O)n1Cc1ccccc1
60 | > 0.0384 mg/mL | CCOC(=O)c1ccc(NCc2cccnc2)cc1
